Data reported in EP1087941B9, “THIOLESTERS AND USES THEREOF” (THE UNITED STATES OF AMERICA, as represented by THE …, priority 1998, dated 1999).
Entries after “also recorded” stand apart in the source; their conditions may differ. Like-named read-outs stand apart in the source and are kept apart here.

How the values were obtained:
[1] = test system: fusion of the HL2/3 and MAGI-CCR-5 cells; test: Fusion assay, HL2/3 and MAGI-CCR-5 co-culture with beta-galactosidase reporter; format: cell-based; details: for IC50: Table 7, read-out: Fusion I50
Procedure: Determination of the effect of the test compounds on viral fusion were carried out as follows. Briefly, HL2/3 cells stably expressing HIV-1 Tat and cell surface gp120 and MAGI-CCR-5 cells stably expressing CD4 and CCR5 on their cell surface, containing a β-galactosidase reporter gene under the control of the HIV-1 LTR were pretreated with test compound for 1 h at 37°C. After incubation, the cells were mixed in a 4 to 1 ratio (2 x 10^5 MAGI-CCR-5 to 8 x 10^5 HL2/3 cells) and co-cultured for 18 h at 37°C; cultures were fixed and stained with X-gal solution for β-galactosidase activity. Blue cells represented the Tat transactivation of the HIV-1 LTR upon fusion of the HL2/3 and MAGI-CCR-5 cells via the CD4/CCR5 co-receptor gp 120 interaction.

[2] = target: T1, recombinant HIV-1 reverse transcriptase (Human immunodeficiency virus type 1 group M subtype B, UniProt P03366); test: Reverse transcriptase assay with rAdT and rCdG template/primer; format: biochemical; details: for IC50: Table 7, high dose test of 100 µM
T1 construct: using recombinant HIV-1 reverse transcriptase; S. Hughes, ABL Basic Research NCI-FCRDC, Frederick MD (supplied, not a catalogue product)
Procedure: The 5-bromovaleroyl thioester, compound 44, and two 5-pyridiniovaleroyl thioesters, compounds 45 and 47, were analyzed in mechanistic and target-based assays. […] Assays for activity against HIV-1 reverse transcriptase rAdT (template/primer) and rCdG (template/primer) using recombinant HIV-1 reverse transcriptase (S. Hughes, ABL Basic Research NCI-FCRDC, Frederick MD) were performed as described by Rice (1997) supra. Substrate cleavage of recombinant HIV-1 protease in the presence of test compounds using an HPLC-based methodology with the artificial substrate Ala-Ser-Glu-Asn-Try- Pro-Ile-Val-amide (Multiple Peptide Systems, San Diego CA) was performed as described by Rice (1997) supra. The ability of recombinant HIV-1 integrase (S. Hughes, ABL Basic Research NCI-FCRDC, Frederick MD) to carry out 3' processing and strand transfer activities in the presence of test compounds was performed as described by Buckheit (1994) AIDS Res. Hum. Retroviruses 10:1497-1506, and Turpin (1998) Antimicrob. Agents Chemother. 42: 487-494.

[3] = target: T2, Virion-associated NCp7 proteins from cell-free HIV-1MN (Human immunodeficiency virus type 1 group M subtype B, UniProt P05888); test: Intravirion NCp7 cross-linking, non-reducing Western blotting
T2 construct: an attack on the mature NCp7 retroviral zinc fingers in the cell-free virus; endogenous in cells
Procedure: The interaction of zinc finger inhibitors, such as the thiolesters of the invention, with cell-free virus can result in modification of intravirion NCp7 protein and loss of infectivity. Virion-associated NCp7 proteins from cell-free HIV-1MN were treated with thiolester compounds 44 and 45. They were also evaluated by non-reducing Western blotting using HIV-1 NCp7-specific antibodies. […] Cross-linking by compound 45 was due to formation of intermolecular disulfide bonds because reduction with 2-mercaptoethanol (β-ME) completely reversed the gel retardation.
Virion cross linking was performed as described by Rice (1995) Science 270:1194-1197 and Turpin (1997) Antiviral Chem. Chemother. 8:60-67. Briefly, highly purified HIV-1 MN (11.8 µg total protein) was incubated for 2 hour with concentrations of compound. Virions were concentrated and residual compound was removed by centrifugation (18,000 x g, 1 h, 4°C). The viral pellet was solubilized in 0.5 M Tris-HCl,(pH 6.8), 50% glycerol, 8% SDS and 0.4% bromophenol blue and proteins resolved by Western blotting. Western blotting to detect the expression of HIV-1 proteins in U1 cells or virus pellets for virion cross-linking experiments was carried out as described by Turpin (1996) J. Virol. 70:6180-6189. Briefly, 50 µg of total cellular protein for U1 experiments or the total virion pellet (11.8 µg total viral protein) for NCp7 cross linking studies was resolved on 4 to 20% polyacrylamide gels in SDS with Tris-Glycine (Novex, San Diego CA). Samples for reduced gels were boiled for 5 min in the presence of 5% β-ME prior to loading. Resolved proteins were electroblotted on to polyvinylidene difluoride (PVDF) membranes, and HIV-1 specific proteins were detected using a mixture of goat anti- HIV-1 NCp7 and p24 or anti-NCp7 for virion proteins alone (a kind gift of L. E. Henderson, AIDS Vaccine Program NCI-FCRDC, Frederick, MD). Western blots were developed using standard chemiluminescence methodologies, as produced and described by Dupont-NEN, Wilmington, DE.
Purified concentrated retrovirus and antisera against the purified NC protein of the virus can be used to test the ability of a specific compound to penetrate the virus and react with the NC protein by forming disulfide complexes in the core of the virus. Compound are mixed with the whole retrovirus under reaction conditions appropriate for the compound. The virus is then removed from the reagent by centrifugation and disrupted in, e.g., standard SDS-PAGE sample buffer with (reduced) and without (non-reduced) 2-mercaptoethanol. […] Thus, compounds of interest (i.e., those which cause cross-linking), including the thiolesters of the invention, reduce the amount of monomeric zinc finger protein detected.

[4] = rAdT template/primer, read-out: Reverse transcriptase rAdT I50
[5] = rCdG template/primer, read-out: Reverse transcriptase rCdG I50

Structure (SMILES)	inhibition of fusion to host cells [1]	IC50 [1] [µM]	inhibition of HIV-1 reverse transcriptase enzyme activity [2]	IC50 [2, 4] [µM]	IC50 [2, 5] [µM]	intravirion NCp7 cross-linking [3]
CC(=O)NS(=O)(=O)c1ccc(NC(=O)c2ccccc2SC(=O)CCCCBr)cc1 [Compound 44, N-[2-(5-bromovaleroylthio)benzoyl]sulfacetamide]	did not inhibit	> 100	did not inhibit	> 100	> 100	very poor cross-linking agent
CC(=O)NS(=O)(=O)c1ccc(NC(=O)c2ccccc2SC(=O)CCCC[n+]2ccccc2)cc1 [Compound 45, N-[2-(5-pyridinio-valeroylthio)benzoyl]sulfacetamide bromide]	did not inhibit	77	did not inhibit	> 100	> 100	extensive cross-linking of NCp7; also recorded: strong cross-linker of intravirion NCp7
O=C(CCCC[n+]1ccccc1)Sc1ccccc1C(=O)Nc1ccc(S(=O)(=O)c2ccc([N+](=O)[O-])cc2)cc1 [Compound 47]	did not inhibit	99	did not inhibit	–	–	did not effectively initiate NCp7 cross-linking
